Data on three compounds can be found in patent publication US5922879A, “N-aminoalkyl-2-anthraquinonecarboxamides: new dopamine receptor subtype specific ligands” (Neurogen Corporation, priority 1997, dated 1999).

The Ki is the dissociation constant of the complex between target and ligand, obtained from inhibition or displacement.

Counter-ions that a name gives are not always drawn.

Assay [1] addresses D2 receptors. In words: D2 receptor binding (displacement of 0.5 nM 3H-YM 09151-2). Details: species or system African Green monkey. To be noted: pellets of COS cells with recombinant D2, nonspecific binding with 1 mM spiperone. On the procedure: (§1) Assay for D2 and D3 Receptor Binding Activity
(§2) Pellets of COS cells containing recombinantly produced D2 or D3 receptors from African Green monkey were used for the assays. The sample is homogenized in 100 volumes (w/vol) of 0.05 M Tris HCl buffer at 4° C. and pH 7.4. The sample is then centrifuged at 30,000 ×g and resuspended and rehomogenized. The sample is then centrifuged as described and the final tissue sample is frozen until use. The tissue is resuspended 1:20 (wt/vol) in 0.05 M Tris HCl buffer containing 100 mM NaCl.
The binding characteristics of representative compounds of the invention for D2 and D3 receptor subtypes are shown in Table 2 for rat striatal homogenates.

The target in assay [2] is T1, D3 receptors (Chlorocebus aethiops, UniProt P52703).
T1 construct: expressed in transfected cells; host or cells: COS cells
T1 sequence (P52703 whole entry): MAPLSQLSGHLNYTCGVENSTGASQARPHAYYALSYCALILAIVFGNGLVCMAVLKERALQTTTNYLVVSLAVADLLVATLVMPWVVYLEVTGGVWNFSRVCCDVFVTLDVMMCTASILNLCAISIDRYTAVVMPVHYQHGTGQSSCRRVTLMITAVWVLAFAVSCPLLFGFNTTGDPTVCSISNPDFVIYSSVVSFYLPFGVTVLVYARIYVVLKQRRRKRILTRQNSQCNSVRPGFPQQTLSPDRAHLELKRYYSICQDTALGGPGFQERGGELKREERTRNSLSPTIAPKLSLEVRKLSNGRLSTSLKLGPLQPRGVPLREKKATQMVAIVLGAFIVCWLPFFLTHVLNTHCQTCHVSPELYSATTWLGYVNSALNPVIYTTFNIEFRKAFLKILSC
In words: D3 receptor binding (displacement of 0.5 nM 3H-YM 09151-2). The arrangement: species or system African Green monkey. The note with it: pellets of COS cells with recombinant D3, nonspecific binding with 1 mM spiperone. As for the experimental part: as §1, §2
Incubations are carried out at 48° C. and contain 0.4 ml of tissue sample, 0.5 nM ^3 H-YM 09151-2 and the compound of interest in a total incubation of 1.0 ml. Nonspecific binding is defined as that binding found in the presence of […] spiperone; without further additions, nonspecific binding is less than 20% of total binding. The binding characteristics of representative compounds of the invention for D2 and D3 receptor subtypes are shown in Table 2 for rat striatal homogenates.

As for “N-(1-{4-[4(8-Quinolinyl)piperazin-1-yl]}butyl)-2-anthraquinonecarboxamide hydrochloride [Compound 6]”, in assay [1], the Ki turned out to be 0.045 µM.

Take `Cc1c(Cl)cccc1N1CCN(CCCCNC(=O)c2ccc3c(c2)C(=O)c2ccccc2C3=O)CC1` [Compound 4, N-(1-{4-[4-(2-Methyl-3-chlorophenyl)piperazin-1-yl]}butyl)-2-anthraquinonecarboxamide hydrochloride]: the results for the inhibition constant Ki in assay [1] and in assay [2] were 0.061 µM and 0.002 µM, respectively.

On to `O=C(NCCCCN1CCN(c2cccc(Cl)c2Cl)CC1)c1ccc2c(c1)C(=O)c1ccccc1C2=O` [Compound 1, N-(1-{4-[4-(2,3-Dichlorophenyl)piperazin-1-yl]}butyl)-2anthraquinonecarboxamide hydrochloride], for which the inhibition constant (Ki) turned out to be 0.154 µM in assay [1] and 0.004 µM in assay [2].
